As a reminder, the inhibition is the share of the control response that was lost under treatment.

These results are taken from patent US6894046B2, “IL-5 inhibiting 6-azauracil derivatives” (Janssen Pharmaceutica N.V., priority 1998, dated 2005).

Structures can show the parent of a compound that is named as a salt.

The first experiment deals with IL-5 production in human blood. Description: In vitro inhibition of IL-5 production in human blood (phytohemagglutinin-stimulated whole blood, ELISA). Particulars: test dose 1×10^−6 M, phytohemagglutinin 2 μg/ml, 48 hours. Format: cell-based. On the procedure: EXAMPLE C.1: IN VITRO INHIBITION OF IL-5 PRODUCTION IN HUMAN BLOOD
Peripheral blood from healthy male donors was drawn into heparinized syringes (12.5 U heparin/ml). Blood samples were three-fold diluted in RMPI 1640 medium (Life Technologies, Belgium) supplemented with 2 mM L-glutamine, 100 U/ml penicillin and 100 μg/ml streptomycin, and 300 μl fractions were distributed in 24-well multidisc plates. Blood samples were preincubated (60 minutes at 37° C.) in a humidified 6% CO2-atmosphere with 100 μl of drug solvent (final concentration 0.02% dimethylsulfoxide in RPMI 1640) or with 100 μl of an appropriate dose of test compound before being stimulated by the addition of 100 μl of phytohemagglutinin HA17 (Murex, UK) at a final concentration of 2 μg/ml. After 48 hours, cell-free supernatant fluids were collected by centrifugation and stored at −70° C. until tested for the presence of IL-5.
IL-5 measurements were conducted as described in Van Wauwe et al. (1996, Inflamm Res, 45, 357-363) on page 358 using ELISA.
Table 6 lists the percentage inhibition of IL-5 production (column “% inh”) at a test dose of 1×10^−6 M, or in case the percentage inhibition is marked with an “*” 1×10^−5 M, for the compounds of the present invention.
In general terms: ELISA stands for enzyme-linked immunosorbent assay.
With `CC(C)(c1noc(-c2ccccc2C(F)(F)F)n1)c1c(Cl)cc(-n2ncc(=O)[nH]c2=O)cc1Cl` [Compound 153], the “% inh. (percentage inhibition of IL-5 production)” value is on record as 77%.
For the molecule `CC(C)(c1noc(-c2ccccc2Cl)n1)c1c(Cl)cc(-n2ncc(=O)[nH]c2=O)cc1Cl` [Compound 89], the “% inh. (percentage inhibition of IL-5 production)” value was 84%.
As for `CC(C)(c1noc(-c2ccccc2CC(=O)O)n1)c1c(Cl)cc(-n2ncc(=O)[nH]c2=O)cc1Cl` [Compound 158], the “% inh. (percentage inhibition of IL-5 production)” value turned out to be 3%.
In the case of `CC(C)(c1nc(-c2ccccc2)c(CC(=O)N2CCOCC2)s1)c1c(Cl)cc(-n2ncc(=O)[nH]c2=O)cc1Cl` [Compound 20], the “% inh. (percentage inhibition of IL-5 production)” value is recorded as 80%.
On the same count and under the same terms, the value for `CC(C)(c1nc(-c2ccc([N+](=O)[O-])s2)cs1)c1c(Cl)cc(-n2ncc(=O)[nH]c2=O)cc1Cl` [Compound 74] was 76%; that for `CN1CCN(c2sc(C(C)(C)c3c(Cl)cc(-n4ncc(=O)[nH]c4=O)cc3Cl)nc2-c2ccccc2)CC1` [Compound 16] was 57%; that for “(α+β)-2-[3,5-dichloro-4-[1-[5-[3-[[tetrahydro-3,4,5-trihydroxy-6-hydroxymethyl)-2H-pyran-2H-pyran-2-yl]amino]phenyl]-4-phenyl-2-thiazolyl]-1-methylethyl]phenyl]-1,2,4-triazine-3,5(2H,4H)-dione 2-propanolate(1:1) [Compound 64]” was 86%.
Regarding `Cc1ccccc1-c1nc(C(C)(C)c2c(Cl)cc(-n3ncc(=O)[nH]c3=O)cc2Cl)sc1-c1ccccc1` [Compound 38], the “% inh. (percentage inhibition of IL-5 production)” value turned out to be 93%.
For the molecule `CC(C)(c1nc(-c2ccccc2)c(-c2cccc([N+](=O)[O-])c2)s1)c1c(Cl)cc(-n2ncc(=O)[nH]c2=O)cc1Cl` [Compound 49], the “% inh. (percentage inhibition of IL-5 production)” value is 95%.
For `COc1cccc(-c2sc(C(C)(C)c3c(Cl)cc(-n4ncc(=O)[nH]c4=O)cc3Cl)nc2-c2ccccc2)c1` [Compound 55], the “% inh. (percentage inhibition of IL-5 production)” value stood at 92%.
The same measure, in the same setting: the figure for `CC(C)(c1nc(-c2ccccc2Cl)c(-c2cccc(C#N)c2)s1)c1c(Cl)cc(-n2ncc(=O)[nH]c2=O)cc1Cl` [Compound 57] is 85%; for `CC(C)OC(=O)c1sc(C(C)(C)c2c(Cl)cc(-n3ncc(=O)[nH]c3=O)cc2Cl)nc1-c1ccccc1` [Compound 122] it is 94%.
The same measure, in the same setting: the figure for `CC(C)(c1noc(-c2cccc(CO)c2)n1)c1c(Cl)cc(-n2ncc(=O)[nH]c2=O)cc1Cl` [Compound 127] is 67%.
The same measure, in the same setting: the value for `CC(C)(c1nc(-c2cccs2)c(C(=O)O)s1)c1c(Cl)cc(-n2ncc(=O)[nH]c2=O)cc1Cl` [Compound 120] was 8%.
`CC(C)(c1nc(-c2ccc(C#N)s2)cs1)c1c(Cl)cc(-n2ncc(=O)[nH]c2=O)cc1Cl` [Compound 78]: the “% inh. (percentage inhibition of IL-5 production)” value is 79%.
On to `CN(C)Cc1sc(C(C)(C)c2c(Cl)cc(-n3ncc(=O)[nH]c3=O)cc2Cl)nc1-c1ccccc1.Cl` [Compound 2], for which the “% inh. (percentage inhibition of IL-5 production)” value is given as 92%.
On the same count and under the same terms, the value for `Cc1c(F)cccc1-c1nc(C(C)(C)c2c(Cl)cc(-n3ncc(=O)[nH]c3=O)cc2Cl)no1` [Compound 144] was 90%.
In the case of `CC(C)(c1nc(-c2cccs2)c(CC(=O)O)s1)c1c(Cl)cc(-n2ncc(=O)[nH]c2=O)cc1Cl` [Compound 121], the “% inh. (percentage inhibition of IL-5 production)” value is −3%.
Still for that read-out and setting: the figure for `Cc1cccc(-c2nc(C(C)(C)c3c(Cl)cc(-n4ncc(=O)[nH]c4=O)cc3Cl)no2)c1` [Compound 91] is 81%; for `CC(C)(c1nc(-c2ccc(Br)cc2)cs1)c1c(Cl)cc(-n2ncc(=O)[nH]c2=O)cc1Cl` [Compound 12] it is 70%; for `CC(C)(c1nc(-c2ccccc2)c(CCc2ccccc2)s1)c1c(Cl)cc(-n2ncc(=O)[nH]c2=O)cc1Cl` [Compound 45] it is 85%.
The same measure, in the same setting: the value for `CC(C)(c1noc(-c2ccccn2)n1)c1c(Cl)cc(-n2ncc(=O)[nH]c2=O)cc1Cl` [Compound 98] was 58%; that for `Cc1ccnc(C)c1-c1nc(C(C)(C)c2c(Cl)cc(-n3ncc(=O)[nH]c3=O)cc2Cl)no1.ClCCl` [Compound 151] was 74%.
The same measure, in the same setting: the figure for “3-[2-[1-[2,6-dichloro-4-(4,5-dihydro-3,5-dioxo-1,2,4-triazin-2(3H)-yl)phenyl]-1-methylethyl-4-(2-chlorophenyl)-5-thiazolyl]-N-(2-methoxyethyl)-benzamide [Compound 63]” is 38%; for `COCc1cccc(-c2nc(C(C)(C)c3c(Cl)cc(-n4ncc(=O)[nH]c4=O)cc3Cl)sc2C)c1` [Compound 44] it is 81%; for `CC(C)(c1nc(-c2ccccc2)c(C(=O)O)s1)c1c(Cl)cc(-n2ncc(=O)[nH]c2=O)cc1Cl` [Compound 117] it is −7%.
On to `Cc1sc(C(C)(C)c2c(Cl)cc(-n3ncc(=O)[nH]c3=O)cc2Cl)nc1-c1cccc(F)c1` [Compound 17], for which the “% inh. (percentage inhibition of IL-5 production)” value was 94%.
The same measure, in the same setting: the value for `CC(C)(c1nc(-c2csc3ccccc23)cs1)c1c(Cl)cc(-n2ncc(=O)[nH]c2=O)cc1Cl` [Compound 79] was 75%; that for `CC(C)(NC(=O)c1cccnc1)c1c(Cl)cc(-n2ncc(=O)[nH]c2=O)cc1Cl` [Compound 101] was 19%.

Staying with this experiment, now noted: test dose 1×10^−6 M, phytohemagglutinin 2 μg/ml, 48 hours, read-out: % inh. (percentage inhibition of IL-5 production).
For `CN1CCN(Cc2ccccc2-c2nc(C(C)(C)c3c(Cl)cc(-n4ncc(=O)[nH]c4=O)cc3Cl)no2)CC1` [Compound 94, 2-[3,5-dichloro-4-[1-methyl-1-[5-[2-[(4-methyl-1-piperazinyl)methyl]phenyl]-1,2,4-oxadiazol-3-yl]ethyl]phenyl]-1,2,4-triazine-3,5(2H,4H)-dione trihydrochloride], the inhibition at 1 µM came to 34%.
In the case of `CC(C)(c1nc(-c2ccccc2Cl)c(-c2cccc(CO)c2)s1)c1c(Cl)cc(-n2ncc(=O)[nH]c2=O)cc1Cl` [Compound 59, 2-[3,5-dichloro-4-[1-[4-(2-chlorophenyl)-5-[3-(hydroxymethyl)phenyl]-2-thiazolyl]-1-methylethyl]phenyl]-1,2,4-triazine-3,5(2H,4H)-dione], the inhibition at 1 µM is 82%.
On to `CC(=O)Nc1cccc(-c2sc(C(C)(C)c3c(Cl)cc(-n4ncc(=O)[nH]c4=O)cc3Cl)nc2-c2ccccc2)c1` [Compound 51, N-[3-[2-[1-[2,6-dichloro-4-(4,5-dihydro-3,5-dioxo-1,2,4-triazin-2(3H)-yl)phenyl]-1-methylethyl]4-phenyl-5-thiazolyl]phenyl]-acetamide], for which the inhibition at 1 µM worked out at 73%.
The same measure, in the same setting: the figure for `Cc1sc(C(C)(C)c2c(Cl)cc(-n3ncc(=O)[nH]c3=O)cc2Cl)nc1-c1cccc(Cl)c1` [Compound 3, 2-[3,5-di-chloro-4-[1-[4-(3-chlorophenyl)-5-methyl-2-thiazolyl]-1-methylethyl]phenyl]-1,2,4-triazine-3,5(2H,4H)-dione] is 92%.
Regarding `CC(C)(c1noc(-c2cccnc2)n1)c1c(Cl)cc(-n2ncc(=O)[nH]c2=O)cc1Cl` [Compound 124, 2-[3,5-dichloro-4-[1-methyl-1-[5-(3-pyridinyl)-1,2,4-oxadiazol-3-yl]ethyl]phenyl]-1,2,4-triazine-3,5(2H,4H)-dione], the inhibition at 1 µM stood at 86%.
Same read-out and setting: the figure for `CC(C)(c1nc(-c2ccccc2)cs1)c1c(Cl)cc(-n2ncc(=O)[nH]c2=O)cc1Cl` [Compound 1, 2-[3,5-dichloro-4-[1-methyl-1-(4-phenyl-2-thiazolyl)ethyl]phenyl]-1,2,4-triazine-3,5(2H,4H)-dione] is 90.5%.
Same read-out and setting: the value for `CC(C)(c1nc(-c2ccccc2)c(Cc2ccccc2)s1)c1c(Cl)cc(-n2ncc(=O)[nH]c2=O)cc1Cl` [Compound 43, 2-[3,5-dichloro-4-[1-methyl-1-[4-phenyl-5-(phenylmethyl)-2-thiazolyl]ethyl]phenyl]-1,2,4-triazine-3,5(2H,4H)-dione] was 86%.
The same measure, in the same setting: the value for `CC(C)(c1nc(-c2ccccc2)c(-c2cccnc2)s1)c1c(Cl)cc(-n2ncc(=O)[nH]c2=O)cc1Cl` [Compound 33, 2-[3,5-dichloro-4-[1-methyl-1-[4-phenyl-5-(3-pyridinyl)-2-thiazolyl]ethyl]phenyl]-1,2,4-triazine-3,5(2H,4H)-dione] was 90%.
For `Cc1ccccc1-c1nc(C(C)(C)c2c(Cl)cc(-n3ncc(=O)[nH]c3=O)cc2Cl)no1` [Compound 87, 2-[3,5-dichloro-4-[1-methyl-1-[5-(2-methylphenyl)-1,2,4-oxadiazol-3-yl]ethyl]phenyl]-1,2,4-triazine-3,5(2H,4H)-dione], the inhibition at 1 µM was 89%.
Regarding `CC(C)(c1nc(-c2ccccc2)c(C(O)c2ccccc2)s1)c1c(Cl)cc(-n2ncc(=O)[nH]c2=O)cc1Cl` (racemic) [Compound 29, (±)-2-[3,5-dichloro-4-[1-[5-(hydroxyphenylmethyl)4-phenyl-2-thiazolyl]-1-methyl-ethyl]phenyl]-1,2,4-triazin-3,5(2H,4H)-dione], the inhibition at 1 µM worked out at 71%.
